This note sets out measurements from publication PMC8537445, “D-Peptide-Based Probe for CXCR4-Targeted Molecular Imaging and Radionuclide Therapy” (Pharmaceutics, 2021).

Data set [1] can be described thus: Stability in human serum (radioHPLC). The class given is in vitro ADME. The note with it: male, human serum (H4522 human male AB plasma), 5-fold dilution in human serum, 9 days at 37 °C, read-out: intact radioligand in human serum. Here is the method:
Formulated solutions of [^18F]AlF-NOTA-DV1-k-(DV3) and [^68Ga]Ga-DOTA-DV1-k-(DV3) were evaluated by radioHPLC 5 h and 2 h after radiosynthesis, respectively. In addition, 5-fold dilutions in human serum (H4522 human male AB plasma, USA origin, sterile-filtered, Sigma Aldrich, Saint Louis, MO, USA) were incubated at 37 °C for 2 h and analyzed using radioHPLC.
A formulated solution of [^177Lu]Lu-DOTA-DV1-k-(DV3) was evaluated by radioHPLC after 9 days of storage at 4 °C. A 5-fold dilution of [^177Lu]Lu-DOTA-DV1-k-(DV3) in human serum (H4522 human male AB plasma, USA origin, sterile-filtered, Sigma Aldrich, Saint Louis, MO, USA) was incubated at 37 °C for 9 days and analyzed by radioHPLC.

Another data set concerns the target T1, murine CXCR4 (mCXCR4) (Mus musculus, UniProt P70658).
T1 construct: expressed in transfected cells; host or cells: U87 human glioblastoma cells, stably transfected
Put plainly: Competition binding with fluorescent murine CXCL12^AF647 on U87.mCXCR4 cells (flow cytometry). Here is the method: Competition binding studies (IC50) were performed as described using either Jurkat cells and human CXCL12^AF647 (Almac, UK) as fluorescent ligand or U87.mCXCR4 cells and murine CXCL12^AF647 (Almac, UK) as fluorescent ligand. […] IC50-values were calculated using nonlinear regression (four parameters) in GraphPad Prism 9 (Graph Pad Software, San Diego, CA, USA) based on three biological replicates for each concentration tested.
For orientation: Flow cytometry measures light scatter and fluorescence of single cells or particles in a stream.

A short description of data set [2]: Ex vivo biodistribution in wild-type mice. The note with it: mouse, total radioactivity, 75 min p.i., ex vivo gamma counting, mean ± SD. On the procedure: The in vivo pharmacokinetics of the selected radioligands were first evaluated in wild-type mice by performing a whole-body biodistribution study. […] Blood and major organs were collected in tared tubes and weighed. Quantification of radioactivity in blood, organs, and other body parts was performed using an automated gamma counter equipped with a 3-inch NaI(Tl) well crystal coupled to a multichannel analyzer, mounted in a sample changer (2480 Wizard^2, Perkin Elmer, Waltham, MA, USA). Counts were corrected for background radiation, physical decay and counter dead time. Results are presented as standardized uptake values (SUV; tissue activity concentration (MBq/g)/[injected dose (MBq)/body weight (g)]).

A short description of a further data set: in vivo. The note with it: female, SCID (CB17.Cg-Prkdc<scid>Lyst<bg-J>/Crl), mouse, tumor, iv, total radioactivity.
Data set [3] addresses T2, hCXCR4-expressing U87 cells (U87.hCXCR4) (Homo sapiens, UniProt P61073).
T2 construct: expressed in transfected cells; host or cells: U87 human glioblastoma cells, stably transfected
Put plainly: Binding and internalization assay on U87.hCXCR4 cells. Conditions: AMD3100 100 µM. The class given is cell-based. Here is the method: Cellular uptake and internalization of [^18F]AlF-NOTA-DV1-k-(DV3), [^68Ga]Ga-DOTA-DV1-k-(DV3) and [^177Lu]Lu-DOTA-DV1-k-(DV3) (11, 17 and 7 nM respectively) into U87.hCXCR4 cells (2.5 × 10^5 cells) were investigated and compared with [^68Ga]PentixaFor (6 nM) as control. […] After incubation, the supernatant was removed and combined with 3 mL of ice-cold PBS used for rinsing the cells (unbound fraction). Subsequently, cells were incubated twice with 50 mM Glycine-HCl pH 2.8 for 5 min at room temperature, followed by one washing step with ice-cold PBS (membrane-bound fraction). Then, cells were lysed using 350 µL of reagent A100 (Chemometec, Allerod, Denmark). Reagent B (Chemometec, Allerod, Denmark) was used for rinsing the wells and to quench the lysing of the cells. Quantification of the amount of bound and internalized activity was performed using an automated gamma counter. The number of cells per well was counted using an automated counting device (NucleoCounter® NC-100™, Chemometec, Allerod, Denmark). Results were expressed as percentage of applied radioactivity bound to 2.5 × 10^5 cells.

Data set [4] is described as follows: Stability of the peptide in standard labeling conditions (LC-HRMS). The class given is physicochemical. Conditions: aqueous buffer pH 4, 1 h at 95 °C. On the procedure:
First, we successfully confirmed previously reported IC50-values of DV1, DV3 and DV1-k-(DV3) for hCXCR4 in an in vitro binding assay (Table 1) and we assessed the stability of the bivalent peptide DV1-k-(DV3) in standard labeling conditions (aqueous buffer pH 4, 1 h at 95 °C).

Where two headings read alike, the source gives them in different places. Positions of bridges follow the written chain, without caps; N, C: chain ends. Non-standard residues stand in square brackets, D forms with d. Residues, ends and D or L forms follow the SMILES beside them. Groups on a side chain read outwards from the residue. Chains are numbered I, II in the order given. *: point of attachment. DOTA = O=C(O)CN1CCN(CC(=O)O)CCN(CC(=O)*)CCN(CC(=O)O)CC1; 2Nal = N[C@@H](Cc1ccc2ccccc2c1)C(=O)O; dNMeOrn = CN[C@H](CCCN)C(=O)O; 4Amb = NCc1ccc(C(=O)O)cc1

T1 sequence (P70658 whole entry): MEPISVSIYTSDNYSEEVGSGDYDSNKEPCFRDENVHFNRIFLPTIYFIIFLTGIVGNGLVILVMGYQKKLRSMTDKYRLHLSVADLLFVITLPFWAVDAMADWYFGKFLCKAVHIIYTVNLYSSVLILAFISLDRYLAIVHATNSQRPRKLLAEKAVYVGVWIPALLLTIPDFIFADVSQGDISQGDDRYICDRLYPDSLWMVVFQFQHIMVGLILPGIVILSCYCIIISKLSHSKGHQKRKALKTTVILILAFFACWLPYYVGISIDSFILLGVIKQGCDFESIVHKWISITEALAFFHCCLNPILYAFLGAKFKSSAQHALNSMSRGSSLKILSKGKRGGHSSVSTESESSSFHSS
T2 sequence (P61073 whole entry): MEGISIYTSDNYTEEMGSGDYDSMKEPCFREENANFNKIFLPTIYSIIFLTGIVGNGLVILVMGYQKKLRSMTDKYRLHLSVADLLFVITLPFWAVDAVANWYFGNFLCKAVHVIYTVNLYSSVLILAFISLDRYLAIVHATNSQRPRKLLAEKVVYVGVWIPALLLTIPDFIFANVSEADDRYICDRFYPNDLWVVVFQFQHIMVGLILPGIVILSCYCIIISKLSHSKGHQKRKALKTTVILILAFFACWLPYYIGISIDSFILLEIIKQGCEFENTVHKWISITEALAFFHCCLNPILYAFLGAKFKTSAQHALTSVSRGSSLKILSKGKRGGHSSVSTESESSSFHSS
Description for in vivo: The subcutaneous tumor xenograft model was prepared using a published procedure [21]. Briefly, 1 × 10^6 U87.hCXCR4 cells mixed with Cultrex (1:1; Cultrex Basement Membrane Extract, R&D systems, Minneapolis, MN, USA) were implanted subcutaneously into the right shoulder of female 10-week-old SCID mice (CB17.Cg-PrkdcLyst<bg-J>/Crl; Charles River Laboratories, Sulzfeld, Germany). After an average of four weeks, the animals were used in biodistribution and PET/computed tomography (CT) imaging studies. Tumor volumes ranged from 150–574 mm^3 (measured by caliper, h × l × w), while the tumor mass-to-body weight ratio was 0.14–2.34%.
Dynamic PET images were acquired for 60 min immediately after intravenous injection using a beta-cube PET scanner (Molecubes, Gent, Belgium). The mice were kept under gas anesthesia during the entire procedure (2.5% isoflurane in O2 at 1 L/min flow rate), with temperature and respiration monitored throughout. […]
PET data were histogrammed into 14 frames (4 × 15 s, 4 × 1 min, 1 × 5 min, 5 × 10 min) and reconstructed into a 192 × 192 image matrix with 0.4 mm voxels using 30 iterations the native MLEM algorithm with corrections for randoms, scatter, attenuation and decay. […] Radiotracer uptake at 60 min, expressed as SUVmean, was the outcome measure.

For `CC(C)C[C@@H](N)C(=O)NCC(=O)N[C@H](C)C(=O)N[C@H](CO)C(=O)N[C@H](Cc1c[nH]c2ccccc12)C(=O)N[C@H](Cc1c[nH]cn1)C(=O)N[C@H](CCCNC(=N)N)C(=O)N1CCC[C@@H]1C(=O)N[C@H](CC(=O)O)C(=O)N[C@H](CCCCNC(=O)CN1CCN(CC(=O)O)CCN(CC(=O)O)CCN(CC(=O)O)CC1)C(=O)NCCCC[C@@H](NC(=O)[C@H]1CCCN1C(=O)[C@@H](CC(C)C)NC(=O)[C@H]1CCCN1C(=O)[C@@H](CCCNC(=N)N)NC(=O)[C@@H](CCCCN)NC(=O)[C@@H](CCC(N)=O)NC(=O)[C@@H](Cc1ccc(O)cc1)NC(=O)CNC(=O)[C@@H](CC(C)C)NC(=O)[C@@H](CS)NC(=O)[C@@H](CS)NC(=O)[C@@H](CCCCN)NC(=O)[C@@H](CC(=O)O)NC(=O)[C@H]1CCCN1C(=O)[C@@H](CCCNC(=N)N)NC(=O)[C@@H](Cc1c[nH]cn1)NC(=O)[C@@H](Cc1c[nH]c2ccccc12)NC(=O)[C@@H](CO)NC(=O)[C@@H](C)NC(=O)CNC(=O)[C@H](N)CC(C)C)C(=O)O` [[^177Lu]Lu-DOTA-DV1-k-(DV3), metal not drawn] (I: H-[dL]G[dA][dS][dW][dH][dR][dP][dD][dK][dC][dC][dL]G[dY][dQ][dK][dR][dP][dL][dP][dK]-OH / II: H-[dL]G[dA][dS][dW][dH][dR][dP][dD][dK](DOTA); amide I:22-II:C), the remaining at 216 h in data set [1] is > 98%.
As a reminder, the IC50 is the midpoint of a concentration-inhibition curve. For the compound `c1cc(CN2CCCNCCNCCCNCC2)ccc1CN1CCCNCCNCCCNCC1` [AMD3100], at murine CXCR4 (mCXCR4) (murine CXCL12^AF647 as fluorescent ligand, mean ± SD, n = 3, read-out: IC50 [nM] to mCXCR4), the IC50 turned out to be 123 ± 17 nM.
As for `CN1C(=O)[C@@H](Cc2ccc(O)cc2)NC(=O)CNC(=O)[C@H](Cc2ccc3ccccc3c2)NC(=O)[C@H](CCCNC(=N)N)NC(=O)[C@H]1CCCNC(=O)c1ccc(CNC(=O)CN2CCN(CC(=O)O)CCN(CC(=O)O)CCN(CC(=O)O)CC2)cc1` [[^68Ga]PentixaFor, metal not drawn] (cyclo([dY][dNMeOrn]([4Amb-DOTA])R[2Nal]G)), the SUV at 1.25 h in data set [2] (blood, + AMD3100 5 mg/kg, n: PentixaFor 1, 18F 2, 68Ga 4, 177Lu 3, read-out: blood uptake) is 0.5 SUV; in data set [2] (blood, tracer alone, n: PentixaFor 3, 18F 5, 68Ga 4, 177Lu 3, read-out: blood uptake), 0.6 ± 0.1 SUV; in data set [2] (bone (femur harboring bone marrow), tracer alone, n: PentixaFor 3, 18F 5, 68Ga 4, 177Lu 3, read-out: bone uptake (femur harboring bone marrow)), 0.2 ± 0.01 SUV; in data set [2] (brain, + AMD3100 5 mg/kg, n: PentixaFor 1, 18F 2, 68Ga 4, 177Lu 3, read-out: brain uptake), 0.02 SUV; in data set [2] (brain, tracer alone, n: PentixaFor 3, 18F 5, 68Ga 4, 177Lu 3, read-out: brain uptake), 0.03 ± 0.01 SUV; in data set [2] (heart, + AMD3100 5 mg/kg, n: PentixaFor 1, 18F 2, 68Ga 4, 177Lu 3, read-out: heart uptake) it was 0.3 SUV. Further, the SUV at 1.25 h was determined as 0.3 ± 0.02 SUV in data set [2] (heart, tracer alone, n: PentixaFor 3, 18F 5, 68Ga 4, 177Lu 3, read-out: heart uptake); 1.9 ± 1.1 SUV in data set [2] (kidneys, tracer alone, n: PentixaFor 3, 18F 5, 68Ga 4, 177Lu 3, read-out: kidneys uptake); 0.5 SUV in data set [2] (liver, + AMD3100 5 mg/kg, n: PentixaFor 1, 18F 2, 68Ga 4, 177Lu 3, read-out: liver uptake); 0.6 ± 0.1 SUV in data set [2] (liver, tracer alone, n: PentixaFor 3, 18F 5, 68Ga 4, 177Lu 3, read-out: liver uptake); 0.7 SUV in data set [2] (lungs, + AMD3100 5 mg/kg, n: PentixaFor 1, 18F 2, 68Ga 4, 177Lu 3, read-out: lungs uptake); 0.7 ± 0.1 SUV in data set [2] (lungs, tracer alone, n: PentixaFor 3, 18F 5, 68Ga 4, 177Lu 3, read-out: lungs uptake). The SUV at 1.25 h in data set [2] (muscle, + AMD3100 5 mg/kg, n: PentixaFor 1, 18F 2, 68Ga 4, 177Lu 3, read-out: muscle uptake) was 0.2 SUV; in data set [2] (muscle, tracer alone, n: PentixaFor 3, 18F 5, 68Ga 4, 177Lu 3, read-out: muscle uptake), 0.2 ± 0.03 SUV; in data set [2] (pancreas, + AMD3100 5 mg/kg, n: PentixaFor 1, 18F 2, 68Ga 4, 177Lu 3, read-out: pancreas uptake), 0.3 SUV; in data set [2] (pancreas, tracer alone, n: PentixaFor 3, 18F 5, 68Ga 4, 177Lu 3, read-out: pancreas uptake), 0.3 ± 0.1 SUV; in data set [2] (spleen, + AMD3100 5 mg/kg, n: PentixaFor 1, 18F 2, 68Ga 4, 177Lu 3, read-out: spleen uptake) it was 0.3 SUV; in data set [2] (spleen, tracer alone, n: PentixaFor 3, 18F 5, 68Ga 4, 177Lu 3, read-out: spleen uptake) it was 0.3 ± 0.02 SUV. Also, in “in vivo”, the SUV at 1 h was found to be 2.9 SUV. Besides, the “blocking of cellular uptake by excess AMD3100” value in data set [3] was “completely blocked”.
`CC(C)C[C@@H](N)C(=O)NCC(=O)N[C@H](C)C(=O)N[C@H](CO)C(=O)N[C@H](Cc1c[nH]c2ccccc12)C(=O)N[C@H](Cc1c[nH]cn1)C(=O)N[C@H](CCCNC(=N)N)C(=O)N1CCC[C@@H]1C(=O)N[C@H](CC(=O)O)C(=O)N[C@H](CCCCN)C(=O)NCCCC[C@@H](NC(=O)[C@H]1CCCN1C(=O)[C@@H](CC(C)C)NC(=O)[C@H]1CCCN1C(=O)[C@@H](CCCNC(=N)N)NC(=O)[C@@H](CCCCN)NC(=O)[C@@H](CCC(N)=O)NC(=O)[C@@H](Cc1ccc(O)cc1)NC(=O)CNC(=O)[C@@H](CC(C)C)NC(=O)[C@@H](CS)NC(=O)[C@@H](CS)NC(=O)[C@@H](CCCCN)NC(=O)[C@@H](CC(=O)O)NC(=O)[C@H]1CCCN1C(=O)[C@@H](CCCNC(=N)N)NC(=O)[C@@H](Cc1c[nH]cn1)NC(=O)[C@@H](Cc1c[nH]c2ccccc12)NC(=O)[C@@H](CO)NC(=O)[C@@H](C)NC(=O)CNC(=O)[C@H](N)CC(C)C)C(=O)O` [DV1-k-(DV3)] (I: H-[dL]G[dA][dS][dW][dH][dR][dP][dD][dK][dC][dC][dL]G[dY][dQ][dK][dR][dP][dL][dP][dK]-OH / II: H-[dL]G[dA][dS][dW][dH][dR][dP][dD][dK]; amide I:22-II:C): in data set [4], the “stability in standard labeling conditions” value is on record as “No degradation products were detected”.
Take `CN1C(=O)[C@@H](Cc2ccc(O)cc2)NC(=O)CNC(=O)[C@H](Cc2ccc3ccccc3c2)NC(=O)[C@H](CCCNC(=N)N)NC(=O)[C@H]1CCCNC(=O)c1ccc(CNC(=O)CN2CCN(CC(=O)O)CCN(CC(=O)O)CCN(CC(=O)O)CC2)cc1` [[^natGa]PentixaFor, metal not drawn] (cyclo([dY][dNMeOrn]([4Amb-DOTA])R[2Nal]G)): the IC50 on murine CXCR4 (mCXCR4) (read-out: IC50 [nM] to mCXCR4, murine CXCL12^AF647 as fluorescent ligand, mean ± SD, n = 3) was > 1000 nM.
